Measured values taken from patent US10688200B2, “Urea-based prostate specific membrane antigen (PSMA) inhibitors for imaging and therapy” (Five Eleven Pharma Inc., priority 2015, dated 2020).
Values belong to the compound of their own block, whether it stands above or below them.

How the values were obtained:
[1] = molecular target: T1, PSMA (Homo sapiens, UniProt Q04609); test: In vitro binding signals of 68Ga labeled ligands in LNCaP tumor homogenates; conditions: Ga-68 radiolabeled ligands
T1 construct: 100 μL of freshly harvested PSMA cells; endogenous in cells; host or cells: 'PSMA cells' in the method
T1 sequence (Q04609 whole entry): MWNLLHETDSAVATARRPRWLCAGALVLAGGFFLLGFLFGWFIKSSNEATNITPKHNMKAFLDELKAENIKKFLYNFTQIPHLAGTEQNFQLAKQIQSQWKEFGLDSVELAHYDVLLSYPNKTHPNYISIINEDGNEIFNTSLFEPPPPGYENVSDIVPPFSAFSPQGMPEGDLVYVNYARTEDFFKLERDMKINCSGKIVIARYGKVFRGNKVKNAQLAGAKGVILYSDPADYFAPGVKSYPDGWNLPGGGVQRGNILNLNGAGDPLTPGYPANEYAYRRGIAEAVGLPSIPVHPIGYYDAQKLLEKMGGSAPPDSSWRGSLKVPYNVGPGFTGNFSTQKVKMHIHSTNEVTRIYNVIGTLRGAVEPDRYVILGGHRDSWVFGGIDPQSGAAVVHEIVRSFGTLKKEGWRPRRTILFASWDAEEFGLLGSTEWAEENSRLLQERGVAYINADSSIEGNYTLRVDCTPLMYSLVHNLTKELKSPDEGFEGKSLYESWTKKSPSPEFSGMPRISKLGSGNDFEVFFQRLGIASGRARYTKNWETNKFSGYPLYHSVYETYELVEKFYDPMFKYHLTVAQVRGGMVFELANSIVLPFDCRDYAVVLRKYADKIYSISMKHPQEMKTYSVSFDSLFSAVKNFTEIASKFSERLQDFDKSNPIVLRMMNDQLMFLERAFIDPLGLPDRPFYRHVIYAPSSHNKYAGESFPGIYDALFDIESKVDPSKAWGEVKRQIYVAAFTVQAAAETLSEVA

[2] = Biodistribution of radiotracers in normal mice; format: in vivo, mouse; conditions: for Biodistribution: Blood / Biodistribution: Bone / Biodistribution: Brain / Biodistribution: Heart / Biodistribution: Kidney / Biodistribution: Liver / Biodistribution: Lung / Biodistribution: Muscle / Biodistribution: Pancreas / Biodistribution: Skin / Biodistribution: Spleen: normal male mice
Method: Normal CD-1 male mice were injected via the tail vein with 35 μCi of [^68Ga] radiotracers (0.2 nmole of ligand). […] All organs were removed and blood was also collected. Each organ was weighed, and the tissue radioactivity was measured with an automated gamma counter (Wizard, Perkin Elmer). The % ID/g was calculated by comparison with samples of a standard dilution of the initial dose. All measurements were corrected for decay.

Structure (SMILES): O=C(O)CCc1ccc(O)c(CN(CCN(CC(=O)O)Cc2cc(CCC(=O)NCC(=O)N[C@@H](Cc3ccc(OCC(=O)N[C@@H](Cc4ccccc4)C(=O)NCCCC[C@H](NC(=O)N[C@@H](CCC(=O)O)C(=O)O)C(=O)O)cc3)C(=O)O)ccc2O)CC(=O)O)c1 [Compound 5b, (4S,11S,15S)-4-Benzyl-1-(4-((S)-2-carboxy-2-(2-(3-(3-(((2-((5-(2-carboxyethyl)-2-hydroxybenzyl)(carboxymethyl)amino)ethyl)(carboxymethyl)amino)methyl)-4-hydroxyphenyl)propanamido)acetamido)ethyl)phenoxy)-2,5,13-trioxo-3,6,12,14-tetraazaheptadecane-11,15,17-tricarboxylic acid.]
- Specific binding (SB) SB = TB − NSB [1]: 10.54
- Total binding (TB) ([1]; 37° C. 60 min): 10.73
- Nonspecific binding (NSB) ([1]; with 1a (PSMA11) 10 μM): 0.18

- Biodistribution: Blood ([2]; 0.5 hr): 0.64 ± 0.22 % dose/g
- Biodistribution: Bone ([2]; 0.5 hr): 0.22 ± 0.05 % dose/g
- Biodistribution: Brain ([2]; 0.5 hr): 0.03 ± 0.01 % dose/g
- Biodistribution: Heart ([2]; 0.5 hr): 0.28 ± 0.09 % dose/g
- Biodistribution: Kidney ([2]; 0.5 hr): 40.6 ± 10.5 % dose/g
- Biodistribution: Liver ([2]; 0.5 hr): 0.23 ± 0.02 % dose/g
- Biodistribution: Lung ([2]; 0.5 hr): 0.80 ± 0.38 % dose/g
- Biodistribution: Muscle ([2]; 0.5 hr): 0.27 ± 0.07 % dose/g
- Biodistribution: Pancreas ([2]; 0.5 hr): 0.40 ± 0.07 % dose/g
- Biodistribution: Skin ([2]; 0.5 hr): 0.56 ± 0.12 % dose/g
- Biodistribution: Spleen ([2]; 0.5 hr): 0.78 ± 0.37 % dose/g
- Biodistribution: Blood ([2]; 1 hr): 0.15 ± 0.05 % dose/g
- Biodistribution: Bone ([2]; 1 hr): 0.11 ± 0.01 % dose/g
- Biodistribution: Brain ([2]; 1 hr): 0.01 ± 0.00 % dose/g
- Biodistribution: Heart ([2]; 1 hr): 0.14 ± 0.01 % dose/g
- Biodistribution: Kidney ([2]; 1 hr): 30.3 ± 3.50 % dose/g
- Biodistribution: Liver ([2]; 1 hr): 0.12 ± 0.02 % dose/g
- Biodistribution: Lung ([2]; 1 hr): 0.45 ± 0.13 % dose/g
- Biodistribution: Muscle ([2]; 1 hr): 0.11 ± 0.03 % dose/g
- Biodistribution: Pancreas ([2]; 1 hr): 0.32 ± 0.183 % dose/g
- Biodistribution: Skin ([2]; 1 hr): 0.21 ± 0.04 % dose/g
- Biodistribution: Spleen ([2]; 1 hr): 0.92 ± 0.24 % dose/g
- Biodistribution: Blood ([2]; 6 hr): 0.01 ± 0.00 % dose/g
- Biodistribution: Bone ([2]; 6 hr): 0.12 ± 0.01 % dose/g
- Biodistribution: Brain ([2]; 6 hr): 0.01 ± 0.00 % dose/g
- Biodistribution: Heart ([2]; 6 hr): 0.02 ± 0.01 % dose/g
- Biodistribution: Kidney ([2]; 6 hr): 17.8 ± 4.07 % dose/g
- Biodistribution: Liver ([2]; 6 hr): 0.07 ± 0.01 % dose/g
- Biodistribution: Lung ([2]; 6 hr): 0.11 ± 0.00 % dose/g
- Biodistribution: Muscle ([2]; 6 hr): 0.03 ± 0.00 % dose/g
- Biodistribution: Pancreas ([2]; 6 hr): 0.08 ± 0.03 % dose/g
- Biodistribution: Skin ([2]; 6 hr): 0.06 ± 0.00 % dose/g
- Biodistribution: Spleen ([2]; 6 hr): 0.28 ± 0.08 % dose/g
- Biodistribution: Blood ([2]; 24 hr): 0.01 ± 0.00 % dose/g
- Biodistribution: Bone ([2]; 24 hr): 0.12 ± 0.01 % dose/g
- Biodistribution: Brain ([2]; 24 hr): 0.01 ± 0.00 % dose/g
- Biodistribution: Heart ([2]; 24 hr): 0.01 ± 0.00 % dose/g
- Biodistribution: Kidney ([2]; 24 hr): 4.02 ± 1.34 % dose/g
- Biodistribution: Liver ([2]; 24 hr): 0.03 ± 0.00 % dose/g
- Biodistribution: Lung ([2]; 24 hr): 0.03 ± 0.01 % dose/g
- Biodistribution: Muscle ([2]; 24 hr): 0.01 ± 0.00 % dose/g
- Biodistribution: Pancreas ([2]; 24 hr): 0.02 ± 0.01 % dose/g
- Biodistribution: Skin ([2]; 24 hr): 0.04 ± 0.01 % dose/g
- Biodistribution: Spleen ([2]; 24 hr): 0.04 ± 0.00 % dose/g
- Initial uptakes in the kidneys, in words ([2]; normal mice): comparable to that of [^68Ga]1g
Structure (SMILES): O=C(O)CC[C@H](NC(=O)N[C@@H](CCCCNC(=O)CCCCCNC(=O)CCc1ccc(O)c(CN(CCN(CC(=O)O)Cc2cc(CCC(=O)NCCNC(=O)CN3CCN4CCN5CCN(CC3)CC(=O)[O][177Lu]([O]C(=O)C4)[O]C(=O)C5)ccc2O)CC(=O)O)c1)C(=O)O)C(=O)O [[^177Lu]1g]
